38 molecules from patent US20060045953A1 (priority 2004, published 2006) can be followed below.

The target of one assay is T1, hT1R1/hT1R3 umami receptor (Homo sapiens, UniProt Q7RTX0+Q7RTX1).
T1 construct: expressed in transfected cells; host or cells: HEK293 derivative stably expressing Gα15, clone I-17, expression induced with mifepristone
T1 sequence (Q7RTX1 21-841): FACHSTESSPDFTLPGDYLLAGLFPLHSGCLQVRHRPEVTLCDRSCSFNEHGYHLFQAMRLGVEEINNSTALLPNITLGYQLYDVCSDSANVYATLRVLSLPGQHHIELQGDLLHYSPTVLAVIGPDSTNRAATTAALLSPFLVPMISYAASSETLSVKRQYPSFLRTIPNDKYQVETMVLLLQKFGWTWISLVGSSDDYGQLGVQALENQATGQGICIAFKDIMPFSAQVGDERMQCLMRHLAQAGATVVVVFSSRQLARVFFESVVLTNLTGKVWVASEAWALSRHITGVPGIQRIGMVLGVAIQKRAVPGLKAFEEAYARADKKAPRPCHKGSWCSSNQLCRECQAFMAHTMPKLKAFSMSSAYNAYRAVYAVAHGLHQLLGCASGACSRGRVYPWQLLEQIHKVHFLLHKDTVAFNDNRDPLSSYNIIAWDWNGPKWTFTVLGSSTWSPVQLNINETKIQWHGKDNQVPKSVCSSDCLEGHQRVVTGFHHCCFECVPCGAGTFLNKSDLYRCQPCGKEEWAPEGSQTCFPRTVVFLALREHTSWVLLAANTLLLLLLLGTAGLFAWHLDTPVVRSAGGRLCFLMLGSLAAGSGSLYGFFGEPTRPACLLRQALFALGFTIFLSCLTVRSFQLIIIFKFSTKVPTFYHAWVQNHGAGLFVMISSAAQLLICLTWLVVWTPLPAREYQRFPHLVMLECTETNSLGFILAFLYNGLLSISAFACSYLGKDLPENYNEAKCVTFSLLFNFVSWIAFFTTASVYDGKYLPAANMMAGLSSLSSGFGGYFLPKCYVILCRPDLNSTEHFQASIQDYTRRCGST
T1 sequence (Q7RTX0 21-852): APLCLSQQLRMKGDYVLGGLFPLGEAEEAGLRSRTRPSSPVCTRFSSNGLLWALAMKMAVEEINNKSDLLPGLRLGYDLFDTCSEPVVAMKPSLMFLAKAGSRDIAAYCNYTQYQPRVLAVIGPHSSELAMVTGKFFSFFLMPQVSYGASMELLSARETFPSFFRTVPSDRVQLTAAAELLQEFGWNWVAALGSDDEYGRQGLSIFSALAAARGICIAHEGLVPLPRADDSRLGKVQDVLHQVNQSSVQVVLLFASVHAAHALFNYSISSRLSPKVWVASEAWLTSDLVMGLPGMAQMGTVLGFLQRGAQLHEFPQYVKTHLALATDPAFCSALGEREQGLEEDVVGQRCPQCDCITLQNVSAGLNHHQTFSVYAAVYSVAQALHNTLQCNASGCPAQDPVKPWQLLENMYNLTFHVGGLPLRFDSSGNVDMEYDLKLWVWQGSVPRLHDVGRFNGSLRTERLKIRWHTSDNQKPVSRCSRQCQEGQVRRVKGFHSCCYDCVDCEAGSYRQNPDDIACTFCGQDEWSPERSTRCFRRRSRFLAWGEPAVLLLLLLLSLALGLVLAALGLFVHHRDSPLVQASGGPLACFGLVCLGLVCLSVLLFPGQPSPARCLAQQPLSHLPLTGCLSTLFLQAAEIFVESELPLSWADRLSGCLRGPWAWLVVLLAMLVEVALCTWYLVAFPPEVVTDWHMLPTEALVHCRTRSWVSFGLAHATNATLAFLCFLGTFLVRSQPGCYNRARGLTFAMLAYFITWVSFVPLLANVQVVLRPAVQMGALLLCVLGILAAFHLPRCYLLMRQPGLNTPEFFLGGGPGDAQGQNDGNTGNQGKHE
The assay is described as follows: In vitro hT1R1/hT1R3 umami taste receptor activation assay (FLIPR, dose response). To be noted: Table A, Umami Amides; read-out: Umami EC50. In kind it is cell-based.
`CC[C@@H](C)[C@@H](NC(=O)c1ccc2c(c1)OCO2)C(=O)OC` [Example A42, (2R,3R)-methyl 2-(benzo[d][1,3]dioxole-5-carboxamido)-3-methylpentanoate]: the EC50 was 350 nM.

For the molecule `CCCC(CC(C)C)NC(=O)c1cc2cc(C)ccc2o1` (centres unmarked) [Example A20, 5-methyl-N-(2-methylheptan-4-yl)benzofuran-2-carboxamide], the EC50 came to 1320 nM.

Take `CCCC(CC(C)C)NC(=O)c1ccc2nc(C)oc2c1` (centres unmarked) [Example A24, 2-methyl-N-(2-methylheptan-4-yl)benzo[d]oxazole-6-carboxamide]: the EC50 came out at 1120 nM.

As to `CCCC(CCC)NC(=O)c1ccc2cc[nH]c2c1` [Example A35, N-(heptan-4-yl)-1H-indole-6-carboxamide], the EC50 is 820 nM.

As for `CCC(NC(=O)c1ccc(OC)c(C)c1)c1ccc(OC)cc1` (centres unmarked) [Example A96, 4-methoxy-N-(1-(4-methoxyphenyl)propyl)-3-methylbenzamide], the EC50 was found to be 760 nM.

As for `CCCC(COC)NC(=O)c1cc2cc(OC)ccc2o1` (centres unmarked) [Example A19, 5-methoxy-N-(1-methoxypentan-2-yl)benzofuran-2-carboxamide], the EC50 was determined as 1300 nM.

As for `COC(=O)C(CC(C)C)NC(=O)c1cc2cc(OC)ccc2o1` (stereo in doubt) [Example A6, 2-[(5-Methoxy-benzofuran-2-carbonyl)-amino]-4-methyl-pentanoic acid methyl ester], the EC50 is 320 nM.

As for `COC(=O)[C@@H](CC(C)C)NC(=O)c1ccc(C)cc1` [Example A69, (R)-methyl 4-methyl-2-(4-methylbenzamido)pentanoate], the EC50 came out at 320 nM.

For the molecule `CCCC(CCC)NC(=O)c1coc2ccccc12` [Example A123, N-(heptan-4-yl)benzofuran-3-carboxamide], the EC50 was determined as 510 nM.

`CCOc1ccc(NC(=O)c2cc(Cl)ccc2Cl)cc1` [Example A3, 2,5-dichloro-N-(4-ethoxyphenyl)benzamide]: the EC50 turned out to be 1080 nM.

In the case of `CCCC(CCC)NC(=O)c1ccc(CC)cc1` [Example A71, 4-ethyl-N-(heptan-4-yl)benzamide], the EC50 stood at 340 nM.

`Cc1cc(C(=O)NC2CCCCC2C)oc1C` (centres unmarked) [Example A33, 4,5-dimethyl-N-(2-methylcyclohexyl)furan-2-carboxamide]: the EC50 was determined as 1330 nM.

With `CCCC(CCC)NC(=O)c1ccc(SC)cc1` [Example A75, N-(heptan-4-yl)-4-(methylthio)benzamide], the EC50 was 390 nM.

`COc1ccc(C(=O)NC2CCCCC2C)cc1Cl` (centres unmarked) [Example A77, 3-chloro-4-methoxy-N-(2-methylcyclohexyl)benzamide]: the EC50 came to 440 nM.

For `COc1cccc(C(=O)N[C@@H]2CCCc3ccccc32)c1N` [Example A108, (R)-2-amino-3-methoxy-N-(1,2,3,4-tetrahydronaplithalen-1-yl)benzamide], the EC50 is 90 nM.

The same assay, now with this note: Table B, Umami Oxalamides; read-out: Umami EC50.
In the case of `CCOc1ccc(CNC(=O)C(=O)NCCc2ccc(C)cn2)c(OC)c1` [Example B2, N1-(4-ethoxy-2-methoxybenzyl)-N2-(2-(5-methylpyndm-2-yl)ethyl)oxalamide], the EC50 came to 190 nM.

Still in this assay, the particulars now being: Table C, Umami Ureas; read-out: Umami EC50.
Regarding `CCCC(CCC)NC(=O)Nc1ccc(OC)cc1Cl` [Example C21, 1-(2-chloro-4-methoxyphenyl)-3-(heptan-4-yl)urea], the EC50 was found to be 110 nM.

Turning to `CCCC(CCC)NC(=O)Nc1ccc(C)cc1OC` [Example C15, 1-(heptan-4-yl)-3-(2-methoxy-4-methylphenyl)urea], the EC50 stood at 160 nM.

The assay is the same for the next values; noted with them: Table D, Umami Acrylamides; read-out: Umami EC50.
Turning to `CCC(COC)NC(=O)/C=C/c1ccc(OC)cc1` (centres unmarked) [Example D14, (E)-N-(1-methoxybutan-2-yl)-3-(4-methoxyphenyl)acrylamide], the EC50 was found to be 1430 nM.

For the molecule `CCOc1ccc(/C=C/C(=O)NC(C)CC)cc1` (centres unmarked) [Example D13, (E)-N-sec-butyl-3-(4-ethoxyphenyl)acrylamide], the EC50 worked out at 1310 nM.

For `COC(=O)[C@@H](CC(C)C)NC(=O)/C=C/c1ccccc1` [Example D11, (R)-methyl 2-cinnamamido-4-methylpentanoate], the EC50 was 1170 nM.

As for `CC(CCc1ccccc1)NC(=O)/C=C/c1cccs1` (centres unmarked) [Example D4, N-(1-Methyl-3-phenyl-propyl)-3-thiophen-2-yl-acrylamide], the EC50 is 690 nM.

The same assay, now with this note: read-out: EC50 for activation of a hT1R1/hT1R3 umami receptor expressed in an HEK293 cell line.
`CCCC(CCC)NC(=O)c1ccc2c(c1)OC(F)(F)O2` [Example 22, 2,2-difluoro-N-(heptan-4-yl)benzo[d][1,3]dioxole-5-carboxamide]: the EC50 is 1510 nM.

With `CCCC(CCC)NC(=O)c1cc2ccccc2s1` [Example 34, N-(heptan-4-yl)benzo[b]thiophene-2-carboxamide], the EC50 came out at 210 nM.

`CCCC(CCC)NC(=O)/C=C/c1ccccc1OC` [Example 86, 3-(2-Methoxy-phenyl)-N-(1-propyl-butyl)-acrylamide]: the EC50 came out at 900 nM.

`COC[C@@H](CC(C)C)NC(=O)/C=C/c1ccc(OC)cc1` [Example 80, N-(1-Methoxymethyl-3-methyl-butyl)-3-(4-methoxy-phenyl)-acrylamide]: the EC50 is 900 nM.

On to `CCC(CC(C)C)NC(=O)c1cc2cc(OC)ccc2o1` (centres unmarked) [Example 31, 5-methoxy-N-(5-methylhexan-3-yl)benzofuran-2-carboxamide], for which the EC50 came out at 1040 nM.

As for `O=C(NCCc1ccccn1)C(=O)NCc1ccccc1O` [Example 148, N-(2-Hydroxybenzyl)-N′-(2-(pyridin-2-yl)ethyl)oxalamide], the EC50 came out at 3110 nM.

As for `COC(=O)[C@@H](CC(C)C)NC(=O)c1cc2cc(C)ccc2o1` [Example 27, (R)-methyl 4-methyl-2-(5-methylbenzofuran-2-carboxamido)pentanoate], the EC50 was found to be 110 nM.

For `CC(C)C[C@@H](NC(=O)c1ccc2c(c1)OCO2)C(=O)NCCc1cccnc1` [Example 15, (R)-N-(4-methyl-1-oxo-1-(2-(pyridin-3-yl)ethylamino)pentan-2-yl)benzo[d][1,3]dioxole-5-carboxamide], the EC50 amounted to 1700 nM.

As for `CCCC(CCC)NC(=O)c1ccc2ncccc2c1` [Example 101, N-(heptan-4-yl)quinoline-6-carboxamide], the EC50 was 3200 nM.

Turning to `COC(=O)[C@H](NC(=O)c1ccc2c(c1)OCO2)C(C)C` [Example 10, (R)-methyl 2-(benzo[d][1,3]dioxole-6-carboxamido)-3-methylbutanoate], the EC50 was 1160 nM.

On to `CCCC(CCC)NC(=O)c1csc(C)n1` [Example 100, N-(heptan-4-yl)-2-methylthiazole-4-carboxamide], for which the EC50 stood at 7200 nM.

For the molecule `O=C(NCCc1ccccn1)C(=O)NCc1cccc2c1OCCO2` [Example 137, N-((2,3-dihydrobenzo[b][1,4]dioxin-5-yl)methyl)-N′-(2-(pyridin-2-yl)ethyl) oxalamide], the EC50 amounted to 300 nM.

`CCCC(NC(=O)c1ccc(C)c(C)c1)C(C)C` (centres unmarked) [Example 68, 3,4-dimethyl-N-(2-methylhexan-3-yl)benzamide]: the EC50 came out at 110 nM.

In the case of `CCCC(COC)NC(=O)c1ccc(OCC)c(C)c1` (centres unmarked) [Example 57, 4-ethoxy-N-(1-methoxypentan-2-yl)-3-methylbenzamide], the EC50 came out at 690 nM.

Turning to `O=C(NCCc1ccccn1)C(=O)NCc1ccccc1Cl` [Example 136, N-(2-chlorobenzyl)-N′-(2-(pyridin-2-yl)ethyl)oxalamide], the EC50 is 10 nM.

Take `CCCC(CCC)NC(=O)c1ccc(O)c(C)c1` [Example 58, 4-hydroxy-3-methyl-N-(1-propyl-butyl)-benzamide]: the EC50 was 920 nM.
